# Like-named read-outs stand apart in the source and are kept apart here.
# Tests used:
# Permeability pH 6.5 = type: in vitro ADME; conditions: PAMPA
# CAPAN1 = assay: Activity in Capan1 cells (ME1 responder line); type: cell-based; conditions: Homo sapiens
# Description: (§1) Compound 1-4 were tested (Table 1) for inhibition of ME1. […] Capan1 is an ME1 responder line. H23 is an ME1 non-responder line.
# (§2) Compound 5-7 were tested (Table 2) for inhibition of ME1. […] Capan1 is an ME1 responder line. H23 is an ME1 non-responder line.
# H23 = assay: Activity in H23 cells (ME1 non-responder line); type: cell-based; conditions: Homo sapiens
# Description: as §1, §2
# [1] = CAPAN-1, Table 1, read-out: CAPAN1 IC50/EC50
# [2] = NCI-H23, Table 1, read-out: H23 IC50/EC50
# [3] = CAPAN-1, Table 2, read-out: CAPAN1 IC50/EC50
# [4] = NCI-H23, Table 2, read-out: H23 IC50/EC50
Structure (SMILES),Papp (Permeability pH 6.5; Table 1) [×10⁻⁶ cm/s],EC50 (CAPAN1; [1]) [µM],EC50 (H23; [2]) [µM],Papp (Permeability pH 6.5; Table 2) [×10⁻⁶ cm/s],EC50 (CAPAN1; [3]) [µM],EC50 (H23; [4]) [µM]
CC1CCN(c2ccc3nnc(-c4cccc(CN(C)C)c4)n3n2)CC1 [Compound 1],26.5,16.1,8.1,–,–,–
CCN1CCC(C(=O)Nc2cccc(-c3nnc4ccc(N5CCC(C)CC5)nn34)c2)CC1 [Compound 2],< 0.3,3.1,8.6,–,–,–
CC1CCN(c2nc3c(c(N4CCc5n[nH]cc5C4)n2)CS(=O)(=O)C3)CC1 [Compound 3],> 30,26.6,4.8,–,–,–
Cc1nn(-c2ccc(Cl)cc2)c2ncc(C(=O)NC3CCN(C)CC3)cc12 [Compound 4],> 30,1.8,–,–,–,–
Cc1cc(=O)c(O)cn1CCN1CCCc2ccccc21 [Compound 5],–,–,–,15.1,2.4,8.6
Cc1cc(=O)c(O)cn1CCCc1ccc(Cl)cc1 [Compound 6],–,–,–,18.1,0.78,1.7
Cc1cc(=O)c(O)c(CN2CC=C(c3ccc(F)cc3)CC2)n1C [Compound 7],–,–,–,–,26.6,5.7
